The source of these data is ChEMBL document CHEMBL4196027, “Structure-based discovery of cytotoxic dimeric tetrahydroxanthones as potential topoisomerase I inhibitors from a marine-derived fungus” (Eur J Med Chem, 2018).

Calls of active or inactive are those of the source. The calls are words filed in the database; no cut-off is given here.

In one test the test system is HL-60. Kind of test: Cytotoxicity against human HL60 cells assessed as reduction in cell proliferation after 48 hrs by MTT assay. In kind it is functional, cell-based.
In a further test the test system is K562. Kind of test: Cytotoxicity against human K562 cells assessed as reduction in cell proliferation after 48 hrs by MTT assay. In kind it is functional, cell-based.
The next test has as its system A549. The test is described as follows: Cytotoxicity against human A549 cells assessed as reduction in cell proliferation after 48 hrs by MTT assay. It is filed as functional, cell-based.
Another test relates to NCI-H1975. The test is described as follows: Cytotoxicity against human NCI-H1975 cells assessed as reduction in cell proliferation after 48 hrs by MTT assay. It is filed as functional, cell-based.
Test [1] deals with MGC-803. Kind of test: Cytotoxicity against human MGC803 cells assessed as reduction in cell proliferation after 48 hrs by MTT assay. It is filed as functional, cell-based.
A short description of test [2]: Cytotoxicity against human HO8910 cells assessed as reduction in cell proliferation after 48 hrs by MTT assay. It is filed as functional, cell-based.
In another test the test system is HCT-116. The test is described as follows: Cytotoxicity against human HCT116 cells assessed as reduction in cell proliferation after 48 hrs by MTT assay. In kind it is functional, cell-based.
The test system of the next test is HEK293. The test is described as follows: Cytotoxicity against HEK293 cells assessed as reduction in cell proliferation after 48 hrs by MTT assay. It is filed as cell-based. The conditions noted are these: Homo sapiens, HEK293, 48 h.
The target of test [3] is T1, DNA topoisomerase 1 (Homo sapiens) (UniProt P11387).
T1 sequence (whole entry): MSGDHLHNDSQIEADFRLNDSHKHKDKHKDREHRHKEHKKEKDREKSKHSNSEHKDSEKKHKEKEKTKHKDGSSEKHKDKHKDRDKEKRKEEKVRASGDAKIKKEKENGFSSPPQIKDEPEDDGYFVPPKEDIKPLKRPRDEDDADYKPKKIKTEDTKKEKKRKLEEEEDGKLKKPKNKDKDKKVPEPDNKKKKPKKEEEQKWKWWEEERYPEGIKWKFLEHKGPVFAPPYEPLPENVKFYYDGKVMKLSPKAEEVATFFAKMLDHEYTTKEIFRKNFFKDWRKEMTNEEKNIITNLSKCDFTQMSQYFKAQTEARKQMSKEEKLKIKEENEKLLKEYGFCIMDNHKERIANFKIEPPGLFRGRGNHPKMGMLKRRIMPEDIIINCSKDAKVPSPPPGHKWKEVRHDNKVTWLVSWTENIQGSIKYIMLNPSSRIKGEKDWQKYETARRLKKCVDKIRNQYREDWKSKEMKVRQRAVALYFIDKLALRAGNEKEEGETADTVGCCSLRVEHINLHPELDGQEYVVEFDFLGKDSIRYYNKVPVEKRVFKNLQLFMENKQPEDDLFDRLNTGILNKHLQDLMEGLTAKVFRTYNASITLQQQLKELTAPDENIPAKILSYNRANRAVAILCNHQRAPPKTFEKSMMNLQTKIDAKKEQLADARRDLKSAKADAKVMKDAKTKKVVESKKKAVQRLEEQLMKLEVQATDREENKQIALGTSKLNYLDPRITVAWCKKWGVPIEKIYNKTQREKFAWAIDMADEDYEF
Kind of test: Inhibition of DNA topoisomerase-1 (unknown origin) up to 40 uM using supercoiled pBR322 DNA as substrate preincubated with enzyme followed by substrate addition measured after 30 mins by ethidium bromide staining based agarose gel electrophoresis method.

The species named for the next test is Homo sapiens. Kind of test: Inhibition of DNA topoisomerase-2 (unknown origin) at 100 uM using kinetoplast DNA as substrate measured after 30 mins by ethidium bromide staining based agarose gel electrophoresis method.
In test [4] the target is T2, Topoisomerase I (Bos taurus) (UniProt Q2HPH0).
T2 sequence (whole entry): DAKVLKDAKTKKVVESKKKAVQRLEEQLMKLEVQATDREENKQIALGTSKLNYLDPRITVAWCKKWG
The test is described as follows: Inhibition of calf thymus DNA topoisomerase-1-mediated supercoiled pBR322 DNA relaxation assessed as stabilization of enzyme-DNA complex at 100 uM preincubated with enzyme followed by substrate addition measured after 30 mins by ethidium bromide staining based agarose gel electrophoresis method.

Test [5] has as its target T2, Topoisomerase I (Bos taurus). The conditions noted are these: 40 uM.
Description: Inhibition of calf thymus DNA topoisomerase-1-mediated supercoiled pBR322 DNA relaxation assessed as stabilization of enzyme-DNA complex at 40 uM preincubated with enzyme followed by substrate addition measured after 30 mins by ethidium bromide staining based agarose gel electrophoresis method
In test [6] the test system is DNA. The test is described as follows: Inhibition of ethidium bromide binding to Escherichia coli pBR322 DNA at 100 uM after 30 mins by fluorescence assay. In kind it is nucleic-acid assay.
Test [7] has as its target T1, DNA topoisomerase 1 (Homo sapiens). The test is described as follows: Inhibition of DNA topoisomerase-1 (unknown origin) using supercoiled pBR322 DNA as substrate preincubated with enzyme followed by substrate addition measured after 30 mins by ethidium bromide staining based agarose gel electrophoresis method.
Test [8] deals with DNA. Kind of test: Binding affinity to Escherichia coli pBR322 DNA assessed as red shift by UV-Visible spectrum analysis. In kind it is nucleic-acid assay.
Test [9] concerns DNA. Kind of test: Binding affinity to Escherichia coli pBR322 DNA assessed as hypochromicity by UV-Visible spectrum analysis. It is filed as nucleic-acid assay.
Test [10] addresses T1, DNA topoisomerase 1 (Homo sapiens). The test is described as follows: Inhibition of DNA topoisomerase-1 (unknown origin) at 10 uM using supercoiled pBR322 DNA as substrate preincubated for 1 to 30 mins followed by substrate addition by ethidium bromide staining based agarose gel electrophoresis method. The conditions noted are these: TDE = time-dependent effect.
For test [11] the target is unchanged. The test is described as follows: Inhibition of DNA topoisomerase-1 (unknown origin) at 10 uM using supercoiled pBR322 DNA as substrate preincubated for 15 mins followed by substrate addition measured after 30 mins by ethidium bromide staining based agarose gel electrophoresis method.
Test [12] deals with MGC-803. The test is described as follows: Cell cycle arrest in human MGC803 cells assessed as accumulation at G2/M phase after 24 hrs by propidium iodide staining based flow cytometry. In kind it is functional.
Test [13] concerns MGC-803. The test is described as follows: Induction of necrosis in human MGC803 cells after 24 hrs by Annexin V-FITC/propidium iodide staining based flow cytometry. In kind it is functional, cell-based.
For test [14], the system named is MGC-803. Kind of test: Induction of apoptosis in human MGC803 cells assessed as change in PARP protein expression up to 25 uM after 24 hrs by Western blot analysis. It is filed as functional, cell-based.
The test system of test [15] is MGC-803. Kind of test: Induction of apoptosis in human MGC803 cells assessed as change in procaspase-9 protein expression up to 25 uM after 24 hrs by Western blot analysis. It is filed as functional, cell-based.
Test [16] deals with MGC-803. Kind of test: Induction of apoptosis in human MGC803 cells up to 25 uM after 48 hrs by Hoechst 33342/propidium iodide staining based flow cytometry. In kind it is functional, cell-based.
Test [17] deals with MGC-803. Kind of test: Induction of cell membrane permeability in human MGC803 cells up to 50 uM up to 72 hrs by LDH release assay. It is filed as functional, cell-based.

Consider `COC(=O)[C@@]12Oc3c(-c4ccc(O)c5c4O[C@]4(C(=O)OC)C(=C(O)C[C@H](C)[C@H]4O)C5=O)ccc(O)c3C(=O)C1=C(O)C[C@H](C)[C@H]2O`, for which the IC50 in the test with HL-60 (Homo sapiens, HL-60, 48 h) was found to be 0.9 µM; in the test with K562 (Homo sapiens, K562, 48 h), 0.4 µM; with A549 (Homo sapiens, A549, 48 h), 11.7 µM; in the test with NCI-H1975 (Homo sapiens, NCI-H1975, 48 h), 3.5 µM; in the test on MGC-803 [1] (Homo sapiens, MGC-803, 48 h), 0.9 µM; in [2] (Homo sapiens, HO-8910, 48 h), 1.4 µM. In addition, in the test with HCT-116 (Homo sapiens, HCT-116, 48 h), the IC50 was 0.5 µM.

On to `COC(=O)[C@@]12Oc3ccc(-c4ccc(O)c5c4O[C@]4(C(=O)OC)C(=C(O)C[C@H](C)[C@H]4O)C5=O)c(O)c3C(=O)C1=C(O)C[C@H](C)[C@H]2O`, for which the IC50 in the test on HL-60 (Homo sapiens, HL-60, 48 h) is 0.5 µM; in the test on K562 (Homo sapiens, K562, 48 h) it was 1.1 µM; with A549 (Homo sapiens, A549, 48 h), 1.6 µM; with MGC-803 [1] (Homo sapiens, MGC-803, 48 h) it was 1.1 µM; in [2] (Homo sapiens, HO-8910, 48 h) it was 1.5 µM; in the test on HCT-116 (Homo sapiens, HCT-116, 48 h) it was 1.2 µM.

On to `COC(=O)c1c(O)c(C)cc(O)c1C(=O)c1c(O)ccc(-c2ccc3c(c2O)C(=O)C2=C(O)C[C@H](C)[C@@H](O)[C@]2(C(=O)OC)O3)c1O`, for which the IC50 in the test with HL-60 (Homo sapiens, HL-60, 48 h) is 27.8 µM; with K562 (Homo sapiens, K562, 48 h) it was > 50 µM; in the test with A549 (Homo sapiens, A549, 48 h), > 50 µM; in the test with NCI-H1975 (Homo sapiens, NCI-H1975, 48 h), > 50 µM; with HEK293 it was > 50 µM; in test [2] (Homo sapiens, HO-8910, 48 h), > 50 µM. Also, the 50% inhibitory concentration (IC50) in the test with HCT-116 (Homo sapiens, HCT-116, 48 h) is > 50 µM.

For the compound `COC(=O)[C@@]12Oc3ccc(-c4ccc(O)c5c4O[C@]4(C(=O)OC)C(=C(O)C[C@H](C)[C@H]4O)C5=O)c(O)c3C(=O)C1=C(O)C[C@H](CO)[C@H]2O`, the IC50 is 47.3 µM in the test with HL-60 (Homo sapiens, HL-60, 48 h); > 50 µM in the test with K562 (Homo sapiens, K562, 48 h); > 50 µM in the test on A549 (Homo sapiens, A549, 48 h); > 50 µM in the test with NCI-H1975 (Homo sapiens, NCI-H1975, 48 h); > 50 µM with HEK293; > 50 µM in test [2] (Homo sapiens, HO-8910, 48 h). Also, in the test with HCT-116 (Homo sapiens, HCT-116, 48 h), the IC50 is > 50 µM.

For the compound `COC(=O)[C@@]12Oc3c(-c4ccc5c(c4O)C(=O)C4=C(O)C[C@H](C)[C@@H](O)[C@]4(C(=O)OC)O5)ccc(O)c3C(=O)C1=C(O)C[C@H](CO)[C@H]2O`, the IC50 was 49.5 µM with HL-60 (Homo sapiens, HL-60, 48 h); > 50 µM with K562 (Homo sapiens, K562, 48 h); > 50 µM in the test with A549 (Homo sapiens, A549, 48 h); 49.5 µM with NCI-H1975 (Homo sapiens, NCI-H1975, 48 h); > 50 µM in the test with MGC-803 [1] (Homo sapiens, MGC-803, 48 h); > 50 µM with HEK293. For the same compound, the IC50 is > 50 µM in test [2] (Homo sapiens, HO-8910, 48 h) and > 50 µM in the test on HCT-116 (Homo sapiens, HCT-116, 48 h). Further, the inhibition entry in test [3] and in test [4] was “Active” throughout. Besides, the inhibition entry in the test listed under Homo sapiens was “inactive”.

For `CC[C@@]1(O)C(=O)OCc2c1cc1n(c2=O)Cc2cc3cc(O)ccc3nc2-1`, the inhibition result in test [5] is “Active”.

With `COc1cc(NS(C)(=O)=O)ccc1Nc1c2ccccc2nc2ccccc12`, the inhibition result in the test on DNA [6] was “Active”.

As for `COC(=O)[C@@]12Oc3cc(C)c(-c4ccc5c(c4O)C(=O)C4=C(O)C[C@H](C)[C@@H](O)[C@]4(C(=O)OC)O5)c(O)c3C(=O)C1=C(O)CC[C@H]2O` (stereo in doubt; 1), the figures for the inhibition entry in [7], in [10] and in [11] were “Dose-dependent effect”, “Tde” and 100%, respectively. The inhibition entry in the test filed under Homo sapiens and in the test on DNA [6] was “inactive” in each case. The inhibition result in test [4] was “Active”. Besides, the result in the test with DNA [8], in the test on DNA [9], in the test on MGC-803 [14], in the test with MGC-803 [15] and in the test on MGC-803 [16] was inactive. Also, the Activity entry with MGC-803 [12] and with MGC-803 [13] was “Dose-dependent effect” in each case. The outcome with MGC-803 [17] was Active.

As for `COC(=O)[C@@]12Oc3cc(C)c(-c4ccc5c(c4O)C(=O)C4=C(O)C[C@H](C)[C@@H](O)[C@]4(C(=O)OC)O5)c(O)c3C(=O)C1=C(O)CC[C@H]2O` (stereo in doubt; 2) [listing 1 of 2 here], the IC50 was found to be 6.9 µM in the test on HL-60 (hl-60); 22.1 µM in the test on K562 (k562); 19.2 µM in the test with A549 (a549); 5.3 µM in the test with NCI-H1975 (nci-h1975); 6.2 µM in the test with MGC-803 [1] (mgc-803); 6.9 µM in test [2]. The IC50 with HCT-116 (hct-116) is 15.2 µM.

Take `COC(=O)[C@@]12Oc3cc(C)c(-c4ccc5c(c4O)C(=O)C4=C(O)C[C@H](C)[C@@H](O)[C@]4(C(=O)OC)O5)c(O)c3C(=O)C1=C(O)CC[C@H]2O` (stereo in doubt; 2) [listing 2 of 2 here]: the inhibition result in [3] and in test [4] was “Active” in each case. Besides, the inhibition entry in the test filed under Homo sapiens was “inactive”.
